Experimental data taken from patent publication US20250314644A1, “METHODS COMPRISING DETECTION OF ADP-HEPTOSE” (CHILDREN'S HOSPITAL MEDICAL CENTER, priority 2023, published 2025).

What was measured:
Assay type in all cases: in vivo, mouse
[1] = UHPLC-MS/MS measurement of ADP-heptose in plasma and BM; details: DSS-induced intestinal barrier dysfunction in mice
Procedure: To measure ADP-heptose, lysates were prepared as described previously. (Gaudet, R. G., et al. INNATE IMMUNITY. Cytosolic detection of the bacterial metabolite HBP activates TIFA-dependent innate immunity. Science 348, 1251-1255 (2015).) Briefly, bacterial culture suspensions of various mouse tissues and human plasma samples were first spun at 4000 g for 5 minutes. Next, pellets were suspended in 1 ml of sterile water. Bacterial cells were then lysed by heating at 95° C. for 15 minutes. Next, lysates were centrifuged at 4000 g for 3 minutes and supernatants filtered through a 0.20 μm syringe filter using 1 ml syringe and needle. Finally, lysates were stored at −80° C. until further processing for Mass Spectrometry. Following a previously established protocol, lysates were prepared. (Pfannkuch, L., et al. ADP heptose, a novel pathogen-associated molecular pattern identified in Helicobacter pylori. FASEB J 33, 9087-9099 (2019).) Briefly, 500 μl of the cleared bacterial lysate was thawed from −80° C. and extracted by addition of 1 ml chloroform/methanol (v:v 2:1) and vortexed and centrifuged (5 min, 10,000 g). […]
The concentration of ADP-heptose was determined using an ultrahigh-performance liquid chromatography-electrospray ionization-mass spectrometry (UHPLC-ESI-MS/MS) method by modifying our previously described protocol. […]

Dnmt3a^−/− HSCs = experiment: DSS gut injury in low-dose irradiated chimeric mice, with or without antibiotics pre-treatment
Excerpt: To model pre-leukemic clonal hematopoiesis, chimeric mice were generated as aas follows. Briefly, mixture of 1×10^6 whole bone marrow cells (WBM) were obtained from Poly (I:C) treated wild-type (Dnmt3a^+/+; MxCre^+, called Dnmt3a^WT) or mutant mice (Dnmt3a^f/f; MxCre^+, called Dnmt3a^KO) or double mutant mice (Dnmt3a^f/f; MxCre^+; Alpk1^KO, called Dnmt3a^KO; Alpk1^KO) (CD45.2^+), and transplanted into low-dose (2.5 Gy) irradiated recipient mice (CD45.1^+; 6-10 weeks of age). 8 weeks post-transplant, chimeric mice were treated with either water (H2O) or DSS (2.5%) for 1 week, and allowed to recover for 1 more week on water after which flow cytometry was performed on BM. In separate experiment, chimeric mice were pre-treated with broad spectrum antibiotics (ABX) for 4 weeks, and then subjected to DSS for 1 week after which flow cytometry performed on BM. In a separate set of experiment, chimeric mice were treated with either H2O or ADP-heptose (0.5 mg/kg) for 2 weeks, and flow cytometry performed after 2 more weeks on BM. […]
Mice were treated with 2.5% DSS (wt/vol) (MW: 36,000-50,000 Da, Cat No. 216011090, MP Biomedicals) in autoclaved drinking water to induce gut injury-associated colitis as mentioned before. […] Mice were monitored daily for weight loss, stool consistency, and the presence of frank blood in the stool. […]

[2] = Quantification of bacterial DNA (16S) in blood by real-time PCR; details: DSS-induced intestinal barrier dysfunction in mice
Excerpt: The previously described protocol to examine bacterial translocation into blood was used. (Luo, Z., et al. CRIg(+) Macrophages Prevent Gut Microbial DNA-Containing Extracellular Vesicle-Induced Tissue Inflammation and Insulin Resistance. Gastroenterology 160, 863-874 (2021); Tabuchi, Y., et al. Oral dextran sulfate sodium administration induces peripheral spondyloarthritis features in SKG mice accompanied by intestinal bacterial translocation and systemic Th1 and Th17 cell activation. Arthritis Res Ther 24, 176 (2022)) Whole blood was collected by cheek bleeding in sterile BD Microtainer Capillary Blood Collector and Microgard Closure tubes (Cat No. 13-680-62, Fisher Scientific) on ice from each mouse using Goldenrod Animal Lancets 4 mm (Cat No. NC9922361, Braintree Scientific), and genomic DNA extracted using DNeasy Blood & Tissue Kit (Cat No. 69504, Qiagen). qPCR was performed using Femto Bacterial DNA Quantification Kit (Cat. No. E2006, Zymo Research) according to the manufacturers' instructions. Samples with a Ct value more than 35 cycles or undetectable were counted as 0 μg/ml.

dextran sulfate sodium [DSS]
ADP-heptose in BM and PB plasma by mass spectrometry [1]: circulating ADP-heptose in the BM and PB plasma
expansion of Dnmt3a^−/− HSCs in the BM (Dnmt3a^−/− HSCs): significant expansion
copies of 16S rRNA in the blood [2]: increased copies
